Tested on: MCF7
Assay: Antiproliferative activity evaluated against MCF-7 cell line
Assay type: functional, cell-based
Details: Homo sapiens

Row | SMILES | IC50
1 | CCCCn1c(Cc2cc(OC)c(OC)c(OC)c2Cl)nc2c(N)ncnc21 | 19.1 µM
2 | C#CCCCn1c(Cc2cc(OC)c(OC)c(OC)c2Cl)nc2c(N)nc(F)nc21 | 2 µM
3 | CCCCn1c(Cc2cc(OC)c(OC)c(OC)c2)nc2c(N)ncnc21 | 50.1 µM
4 | COc1cc(Cc2nc3c(N)ncnc3n2C)cc(OC)c1OC | 70.8 µM
5 | CCCCn1c(Cc2cc(OC)c(OC)c(OC)c2)nc2c(N)nc(F)nc21 | 24 µM
6 | C#CCCCn1c(Cc2cc(OC)c(OC)c(OC)c2)nc2c(N)ncnc21 | 24 µM
7 | COCCn1c(Cc2cc(OC)c(OC)c(OC)c2)nc2c(N)nc(F)nc21 | 64.6 µM
8 | COc1cc(Cc2nc3c(N)ncnc3n2CC(C)C)cc(OC)c1OC | 97.7 µM
9 | COc1cc(Cc2nc3c(N)nc(F)nc3n2CC2CCC2)cc(OC)c1OC | 40.7 µM
10 | CCCn1c(Cc2cc(OC)c(OC)c(OC)c2)nc2c(N)ncnc21 | 46.8 µM
11 | CCCn1c(Cc2cc(OC)c(OC)c(OC)c2)nc2c(N)nc(F)nc21 | 25.1 µM
12 | COc1cc(Cc2nc3c(N)nc(F)nc3n2CCOC(C)C)cc(OC)c1OC | 15.8 µM
13 | COc1cc(Cc2nc3c(N)ncnc3n2CC2CCCO2)cc(OC)c1OC (stereo not given) | 91.2 µM
14 | COc1cc(Cc2nc3c(N)ncnc3n2CCCC(C)C)cc(OC)c1OC | 69.2 µM
15 | COc1cc(Cc2nc3c(N)ncnc3n2CC(OC)OC)cc(OC)c1OC | 72.4 µM
16 | CCCCn1c(Cc2cc(OC)c(OC)c(OC)c2Br)nc2c(N)ncnc21 | 25.1 µM
17 | CC/C=C\Cn1c(Cc2cc(OC)c(OC)c(OC)c2)nc2c(N)ncnc21 | 64.6 µM
18 | CCC(C)Cn1c(Cc2cc(OC)c(OC)c(OC)c2)nc2c(N)ncnc21 (stereo not given) | 61.7 µM
19 | C=CCCn1c(Cc2cc(OC)c(OC)c(OC)c2)nc2c(N)nc(F)nc21 | 33.1 µM
20 | CCCCCn1c(Cc2cc(OC)c(OC)c(OC)c2)nc2c(N)ncnc21 | 61.7 µM

Row | SMILES | IC50
21 | C=CCCn1c(Cc2cc(OC)c(OC)c(OC)c2)nc2c(N)ncnc21 | 40.7 µM
22 | COc1cc(Cc2nc3c(N)ncnc3n2CC2(C)CC2)cc(OC)c1OC | 112 µM
23 | C#CCCCn1c(Cc2cc(OC)c(OC)c(OC)c2)nc2c(N)nc(F)nc21 | 11 µM
24 | CC/C=C/Cn1c(Cc2cc(OC)c(OC)c(OC)c2)nc2c(N)ncnc21 | 46.8 µM
25 | COc1cc(Cc2nc3c(N)ncnc3n2CC2CCC2)cc(OC)c1OC | 45.7 µM
26 | CCn1c(Cc2cc(OC)c(OC)c(OC)c2)nc2c(N)ncnc21 | 79.4 µM
27 | CCCCCn1c(Cc2cc(OC)c(OC)c(OC)c2)nc2c(N)nc(F)nc21 | 36.3 µM
28 | COc1cc(Cc2nc3c(N)nc(F)nc3n2CCOC(C)C)c(Cl)c(OC)c1OC | 5.37 µM
29 | CC[C@H](C)Cn1c(Cc2cc(OC)c(OC)c(OC)c2)nc2c(N)nc(F)nc21 | 43.7 µM
30 | COc1cc(Cc2nc3c(N)nc(F)nc3n2CC2CCCO2)cc(OC)c1OC (stereo not given) | 22.9 µM
31 | CCCCn1c(Cc2c(Br)c(OC)c(OC)c(OC)c2Br)nc2c(N)ncnc21 | 30.2 µM
32 | C/C=C/Cn1c(Cc2cc(OC)c(OC)c(OC)c2)nc2c(N)ncnc21 | 51.3 µM
33 | C#CCCn1c(Cc2cc(OC)c(OC)c(OC)c2)nc2c(N)nc(F)nc21 | 25.1 µM
34 | COCCn1c(Cc2cc(OC)c(OC)c(OC)c2)nc2c(N)ncnc21 | 64.6 µM
35 | CC#CCCn1c(Cc2cc(OC)c(OC)c(OC)c2)nc2c(N)nc(F)nc21 | 37.2 µM
36 | CCC(CC)Cn1c(Cc2cc(OC)c(OC)c(OC)c2)nc2c(N)ncnc21 | 158 µM
37 | COc1cc(Cc2nc3c(N)ncnc3n2CC2CCCCC2)cc(OC)c1OC | 39.8 µM
38 | COc1cc(Cc2nc3c(N)ncnc3n2CCOC(C)C)cc(OC)c1OC | 38.9 µM
39 | C=CCCCn1c(Cc2cc(OC)c(OC)c(OC)c2)nc2c(N)nc(F)nc21 | 44.7 µM
40 | COc1cc(Cc2nc3c(N)ncnc3n2CC2CC2)cc(OC)c1OC | 75.9 µM
